# In patent US20070197525A1, “Novel tetracyclic tetrahydrofuran derivatives” (priority 2004, published 2007):
# Columns and labels:
# [1] = molecular target: T1, human cloned 5-HT2C receptor (Homo sapiens, UniProt P28335); experiment: In vitro binding affinity for 5-HT2C receptor (radioligand binding); settings: human cloned 5-HT2C receptor expressed in CHO cells, [3H]mesulergine radioligand; read-out: 5-HT2C (pIC50) (converted)
# T1 construct: expressed in transfected cells; host or cells: CHO cells
# T1 sequence (P28335 33-458): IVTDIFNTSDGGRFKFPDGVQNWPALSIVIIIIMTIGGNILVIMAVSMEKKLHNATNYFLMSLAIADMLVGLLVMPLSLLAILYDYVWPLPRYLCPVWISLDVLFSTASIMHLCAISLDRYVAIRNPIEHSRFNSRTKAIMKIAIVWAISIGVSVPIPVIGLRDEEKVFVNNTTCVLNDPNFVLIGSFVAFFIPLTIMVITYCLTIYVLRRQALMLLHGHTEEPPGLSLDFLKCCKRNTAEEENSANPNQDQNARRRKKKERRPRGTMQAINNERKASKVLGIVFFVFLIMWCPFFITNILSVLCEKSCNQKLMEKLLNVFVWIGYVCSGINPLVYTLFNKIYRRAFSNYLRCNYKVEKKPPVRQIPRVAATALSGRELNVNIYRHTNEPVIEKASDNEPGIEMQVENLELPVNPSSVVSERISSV
# Experimental: (§1) The interaction of the compounds of Formula (I) with 5-HT2A and 5-HT2C receptors was assessed in in vitro radioligand binding experiments. In general, a low concentration of a radioligand with a high binding affinity for the receptor is incubated with a sample of a tissue preparation enriched in a particular receptor (1 to 5 mg tissue) in a buffered medium (0.2 to 5 ml). During the incubation, the radioligands bind to the receptor. When equilibrium of binding is reached, the receptor bound radioactivity is separated from the non-bound radioactivity, and the receptor bound activity is counted. The interaction of the test compounds with the receptors is assessed in competition binding experiments. Various concentrations of the test compound are added to the incubation mixture containing the tissue preparation and the radioligand. Binding of the radioligand will be inhibited by the test compound in proportion to its binding affinity and its concentration. The affinities of the compounds for the 5-HT2 receptors were measured by means of radioligand binding studies conducted with: (a) human cloned 5-HT2A receptor, expressed in L929 cells using [^125I]R91150 as radioligand and (b) human cloned 5-HT2C receptor, expressed in CHO cells using [^3H]mesulergine as radioligand.
# [2] = molecular target: T2, human dopamine D2L receptor (Homo sapiens, UniProt P14416); experiment: In vitro assay for D2 receptor binding; settings: for IC50 / D2 (pIC50): membranes of human D2L-transfected CHO cells, [3H]Spiperone radioligand; for IC50: read-out: D2 (pIC50) (converted); for D2/NET: ratio of D2 pIC50 to NET-inhibition pIC50
# T2 construct: expressed in transfected cells; host or cells: CHO cells (frozen membranes)
# Experimental: Frozen membranes of human dopamine D2L receptor-transfected CHO cells were thawed, briefly homogenised using an Ultra-Turrax T25 homogeniser and diluted in Tris-HCl assay buffer containing NaCl, CaCl2, MgCl2, KCl (50, 120, 2, 1, and 5 mM respectively, adjusted to pH 7.7 with HCl) to an appropriate protein concentration optimised for specific and non-specific binding. Radioligand [^3H]Spiperone (NEN, specific activity ˜70 Ci/mmol) was diluted in assay buffer at a concentration of 2 nmol/L. Prepared radioligand (50 μl), along with 50 μl of either the 10% DMSO control, Butaclamol (10^−6 mol/l final concentration), or compound of interest, was then incubated (30 min, 37° C.) with 400 μl of the prepared membrane solution. Membrane-bound activity was filtered through a Packard Filtermate harvester onto GF/B Unifilterplates and washed with ice-cold Tris-HCl buffer (50 mM; pH 7.7; 6×0.5 ml). Filters were allowed to dry before adding scintillation fluid and counting in a Topcount scintillation counter. Percentage specific bound and competition binding curves were calculated using S-Plus software (Insightful).
# [3] = molecular target: T3, norepinephrine transporter (NET) (Rattus norvegicus, UniProt Q63380); experiment: In vitro assay for NET inhibition (radioligand binding, rat brain cortex); settings: rat brain cortex membranes, [3H]Nixosetine radioligand; for IC50: read-out: NET-inhibition (pIC50) (converted)
# T3 construct: Cortex from rat brain was collected and homogenised; from tissue; host or cells: rat brain cortex membranes
# Experimental: Cortex from rat brain was collected and homogenised using an Ultra-Turrax T25 and a Dual homogeniser in ice-cold homogenising buffer containing Tris, NaCl and KCl (50 mM, 120 mM and 5 mM, respectively, pH 7.4) prior to dilution to an appropriate protein concentration optimised for specific and non-specific binding. […] Membrane-bound activity was detected by filtration through a Packard Filtermate harvester onto GF/B Unifilterplates, washed with ice-cold Tris-HCl buffer, containing NaCl and KCl (50 mM, 120 mM and 4 mM; pH 7.4; 6×0.5 ml). Filters were allowed to dry for 24 h before adding scintillation fluid. Scintillation fluid was allowed to saturate filters for 24 h before counting in a Topcount scintillation counter. Percentage specific bound and competition binding curves were calculated using S-Plus software (Insightful).
# [4] = molecular target: T4, human cloned 5-HT2A receptor (Homo sapiens, UniProt P28223); experiment: In vitro binding affinity for 5-HT2A receptor (radioligand binding); settings: human cloned 5-HT2A receptor expressed in L929 cells, [125I]R91150 radioligand; read-out: 5-HT2A (pIC50) (converted)
# T4 construct: expressed in transfected cells; host or cells: L929 cells
# Experimental: as §1
# T3 sequence (Q63380 1-617): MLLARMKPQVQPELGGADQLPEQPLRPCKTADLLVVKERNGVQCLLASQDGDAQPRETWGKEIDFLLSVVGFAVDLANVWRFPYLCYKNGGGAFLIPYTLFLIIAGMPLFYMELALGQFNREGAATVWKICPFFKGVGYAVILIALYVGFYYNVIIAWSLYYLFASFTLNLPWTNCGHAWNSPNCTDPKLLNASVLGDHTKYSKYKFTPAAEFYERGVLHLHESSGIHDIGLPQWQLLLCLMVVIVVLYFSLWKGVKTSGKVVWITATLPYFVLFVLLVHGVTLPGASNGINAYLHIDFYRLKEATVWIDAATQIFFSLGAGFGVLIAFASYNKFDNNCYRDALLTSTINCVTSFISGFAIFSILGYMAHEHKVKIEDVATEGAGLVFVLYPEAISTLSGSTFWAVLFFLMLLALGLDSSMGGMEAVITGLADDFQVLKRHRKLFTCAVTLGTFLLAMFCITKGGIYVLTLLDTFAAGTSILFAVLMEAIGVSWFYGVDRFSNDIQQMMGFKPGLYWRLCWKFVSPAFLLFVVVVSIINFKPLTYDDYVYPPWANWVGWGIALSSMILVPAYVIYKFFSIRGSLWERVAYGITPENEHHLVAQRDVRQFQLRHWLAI
# T4 sequence (P28223 whole entry): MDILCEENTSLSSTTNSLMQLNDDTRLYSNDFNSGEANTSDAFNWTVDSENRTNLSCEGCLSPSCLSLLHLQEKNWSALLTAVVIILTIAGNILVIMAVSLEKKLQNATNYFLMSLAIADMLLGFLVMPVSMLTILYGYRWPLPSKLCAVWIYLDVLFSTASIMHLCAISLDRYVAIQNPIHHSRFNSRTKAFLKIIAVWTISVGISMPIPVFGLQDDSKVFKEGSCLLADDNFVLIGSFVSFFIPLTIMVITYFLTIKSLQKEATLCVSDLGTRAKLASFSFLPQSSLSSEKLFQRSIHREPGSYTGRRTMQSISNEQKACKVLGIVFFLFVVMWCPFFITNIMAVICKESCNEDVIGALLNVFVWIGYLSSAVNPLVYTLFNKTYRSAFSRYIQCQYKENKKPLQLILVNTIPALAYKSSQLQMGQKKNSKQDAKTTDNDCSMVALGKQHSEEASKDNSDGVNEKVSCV
# T2 sequence (P14416 whole entry): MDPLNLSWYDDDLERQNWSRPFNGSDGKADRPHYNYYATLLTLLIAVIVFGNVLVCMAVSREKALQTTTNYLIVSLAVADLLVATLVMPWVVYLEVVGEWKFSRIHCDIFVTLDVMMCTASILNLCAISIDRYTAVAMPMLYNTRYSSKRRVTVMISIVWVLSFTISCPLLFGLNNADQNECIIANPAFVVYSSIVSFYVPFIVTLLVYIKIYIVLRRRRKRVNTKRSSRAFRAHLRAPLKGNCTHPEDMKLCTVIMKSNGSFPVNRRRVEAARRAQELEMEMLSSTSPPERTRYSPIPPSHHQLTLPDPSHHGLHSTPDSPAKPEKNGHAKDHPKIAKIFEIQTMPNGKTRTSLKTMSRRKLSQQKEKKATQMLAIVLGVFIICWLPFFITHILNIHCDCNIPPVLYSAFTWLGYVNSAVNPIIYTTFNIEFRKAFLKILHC
SMILES,IC50 [1],IC50 [2],D2/NET [2],IC50 [3],D2 (pIC50) [2],IC50 [4],NET-inhibition (pIC50) [3]
"CNCC1CC2c3ccccc3C(C)(O)c3ccc(F)cc3C2O1 (single isomer, unassigned) [Compound 125]",6310 nM,> 10000 nM,<0.88,2000 nM,–,–,–
"CNCC1CC2c3ccccc3C(C)(O)c3ccc(F)cc3C2O1 (single isomer, unassigned) [Compound 126]",501 nM,–,<0.69,63.1 nM,<5,–,–
CNC[C@H]1C[C@H]2c3cc(F)ccc3C(C)c3ccccc3[C@@H]2O1 (mixture of isomers) [Compound 102],50.1 nM,7940 nM,0.68,31.6 nM,–,–,–
NC[C@H]1C[C@@H]2c3ccccc3[C@@H](O)c3ccc(F)cc3[C@H]2O1 [Compound 104],2.51 nM,7940 nM,0.60,200 nM,–,12.6 nM,–
COC1c2ccccc2C2CC(CNCc3ccccc3)OC2c2cc(F)ccc21 (stereo not drawn) [Compound 111],79.4 nM,3160 nM,0.96,2000 nM,–,–,–
CNC[C@H]1C[C@@H]2c3ccccc3[C@@H](OC(C)C)c3ccc(F)cc3[C@H]2O1 [Compound 63],100 nM,> 10000 nM,<0.92,3980 nM,–,316 nM,–
"CCNCC1CC2c3ccccc3C(C)(O)c3ccc(F)cc3C2O1 (single isomer, unassigned) [Compound 119]",20 nM,–,0.67,31.6 nM,–,–,–
"CNCC1CC2c3ccccc3C(C)c3ccc(F)cc3C2O1 (single isomer, unassigned) [Compound 100]",158 nM,> 10000 nM,<0.62,7.94 nM,–,–,–
COc1ccc2c(c1)[C@H]1O[C@@H](CN(C)C)C[C@@H]1c1ccccc1C2=O [Compound 16],50.1 nM,–,0.95,501 nM,–,–,–
CCNC[C@H]1C[C@@H]2c3ccccc3[C@@H](O)c3ccc(F)cc3[C@H]2O1 (relative stereo) [Compound 106],5.01 nM,1260 nM,0.67,3.98 nM,–,20 nM,–
CNC[C@@H]1C[C@H]2c3ccccc3C(C)c3ccc(F)cc3[C@@H]2O1 (mixture of isomers) [Compound 99],200 nM,> 10000 nM,<0.69,63.1 nM,–,–,–
"CNCC1CC2c3ccccc3C(C)(O)c3ccc(F)cc3C2O1 (single isomer, unassigned) [Compound 124]",6310 nM,–,<0.77,316 nM,<5,–,–
C=C1c2ccc(F)cc2C2CC(CN(C)C)OC2c2cc(F)ccc21 (stereo not drawn) [Compound 29],12.6 nM,> 1000 nM,<0.72,5.01 nM,–,–,–
CNC[C@H]1C[C@@H]2c3cc(F)ccc3[C@@H](C)c3ccccc3[C@H]2O1 [Compound 101],20 nM,3980 nM,0.69,15.8 nM,–,–,–
"C=C1c2ccccc2C2CC(CN(C)C)OC2c2ccccc21 (single isomer, unassigned) [Compound 24]",25.1 nM,> 10000 nM,<0.65,20 nM,–,158 nM,–
"CNCC1CC2c3ccccc3C(C)c3ccc(F)cc3C2O1 (single isomer, unassigned) [Compound 73]",2 nM,63.1 nM,0.96,39.8 nM,–,2 nM,–
COC1c2ccccc2[C@H]2C[C@H](CN(C)C)O[C@@H]2c2cc(F)ccc21 (stereo partly drawn) [Compound 60],39.8 nM,3980 nM,0.79,126 nM,–,–,–
C=C1c2ccccc2[C@@H]2C[C@@H](CNC)O[C@H]2c2cc(F)ccc21 [Compound 95],50.1 nM,6310 nM,0.67,15.8 nM,–,–,–
"CNCC1CC2c3cc(F)ccc3C(C)(O)c3ccccc3C2O1 (single isomer, unassigned) [Compound 114]",1000 nM,–,<0.83,631 nM,<5,–,–
C[C@@H]1c2ccccc2[C@H]2C[C@H](CN(C)C)O[C@@H]2c2cc(N(C)C)ccc21 [Compound 78],100 nM,2000 nM,0.88,398 nM,–,–,–
"CCNCC1CC2c3ccccc3C(C)(O)c3ccc(F)cc3C2O1 (single isomer, unassigned) [Compound 118]",100 nM,2000 nM,0.91,631 nM,–,–,–
CC1c2ccc(F)cc2C2CC(CN(C)C)OC2c2cc(F)ccc21 (stereo not drawn) [Compound 77],50.1 nM,> 1000 nM,<0.80,31.6 nM,–,–,–
"C=C1c2ccc(F)cc2C2CC(CNC)OC2c2ccccc21 (single isomer, unassigned) [Compound 93]",3.98 nM,–,0.73,6.31 nM,–,–,–
"C=C1c2ccc(F)cc2C2CC(CNC)OC2c2ccccc21 (single isomer, unassigned) [Compound 94]",20 nM,5010 nM,0.65,–,–,–,8.2
CN(C)C[C@H]1C[C@@H]2c3ccccc3C(=O)c3ccc(F)cc3[C@H]2O1 [Compound 12],79.4 nM,> 1000 nM,<0.83,63.1 nM,–,63.1 nM,–
CCNC[C@H]1C[C@@H]2c3ccccc3[C@H](O)c3ccc(F)cc3[C@H]2O1 [Compound 107],6.31 nM,1580 nM,0.86,158 nM,–,20 nM,–
CCNC[C@H]1C[C@@H]2c3ccccc3[C@@H](OC)c3ccc(F)cc3[C@H]2O1 [Compound 110],398 nM,> 10000 nM,<0.62,10 nM,–,1260 nM,–
CNC[C@H]1C[C@@H]2c3ccccc3[C@H](O)c3ccc(F)cc3[C@H]2O1 [Compound 34],5.01 nM,> 1000 nM,<0.77,20 nM,–,31.6 nM,–
OC1c2ccccc2C2CC(CNCc3ccccc3)OC2c2cc(F)ccc21 (stereo not drawn) [Compound 109],12.6 nM,> 10000 nM,<0.92,3980 nM,–,–,–
"CNCC1CC2c3cc(F)ccc3C(C)(O)c3ccccc3C2O1 (single isomer, unassigned) [Compound 115]",1580 nM,> 10000 nM,<0.85,1260 nM,–,–,–
